We go through one molecule from patent US9345742B2, “Aminostatin derivatives for the treatment of arthrosis” (MERCK PATENT GMBH, priority 2011, dated 2016).

Each structure is given as a SMILES string.

One assay deals with recombinant human renin (Homo sapiens (Human), UniProt P00797). The assay can be described thus: In-vitro fluorescence assay for identification of renin-inhibitory activity. It is filed as biochemical. The conditions noted are these: recombinant human renin 10 nM, pH 7.2; read-out: Renin selectivity IC50. Summed up:
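Recombinant human renin (10 nM) pre-incubated 15 min at RT with serially diluted compound in 50 mM Mops pH 7.2, 1.5% DMSO, 0.1% Igepal, 0.5% BSA; Edans/Dabcyl FRET peptide (5 µM final) added, 60 min at 37 °C; cleavage read as fluorescence increase (ex 340/em 495 nm) against no-compound wells.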

For the next assay, the system named is bovine explants. Put plainly: Cartilage explant assay (pH-induced cartilage degradation, GAG liberation). The conditions noted are these: Bos taurus, 72 h, pH 5.5, 3 days. It counts as cell-based. The source says:
In order to investigate the effect of potential cathepsin D inhibitors on cartilage degradation, a pH-induced model based on bovine explants is used. The pH of the medium in which the explants are cultivated is matched here to the pathophysiological pH of an arthrotic knee. This pH is pH 5.5. In this ex vivo model, potential cathepsin D inhibitors are subsequently investigated for their action with respect to stopping of the cartilage degradation process. If the cartilage is destroyed, glycosaminoglycans (GAGs) are released into the cell culture supernatant. The amount of GAGs liberated can be determined quantitatively with the aid of DMMB (dimethylmethylene blue hydrochloride). If sulfated GAGs are detected using dimethylmethylene blue hydrochloride, the decrease in the absorption at 633 nm is utilised. […] In order to determine the concentration, a calibration line is also recorded using chondroitin sulfate.
The bovine explants are firstly prepared. The induction of the cartilage degradation is carried out in 96-multiwell plates. One explant is cultivated per well. In each case, 200 μl of DMEM (incubation medium pH 5.5) without FBS+30 μg/ml of ascorbic acid are added. Thus negative control, explants (n=4) are incubated at pH 7.4 (without FBS). This control is not included in the calculation of the data, but instead ensures that the pH change has the desired effect on the liberation of GAG. At this point, the substances to be tested are added. No preincubation of the explants is carried out. The explants are cultivated with the corresponding substances for 3 days in the incubator at 37° C. and 7.5% CO2.
In order to investigate the effect of cathepsin D inhibitors on the liberation of GAG (glycosaminoglycan), the substances are employed in the desired concentration and cultivated for 3 days. The compounds to be tested are tested in a first experiment in a concentration of 1 μM and 1% of DMSO. Substances which have an effect of >50% on the liberation of GAG (this corresponds to <50% of the control in the Assay Explorer) are tested in the next experiment at 100 nM and 1% of DMSO. Substances which have an effect of >50% on the liberation of GAG under these conditions (this corresponds to <50% of the control in the Assay Explorer) are tested in a concentration/effect relationship. The compounds here are investigated in the following concentrations: 30 μM, 10 μM, 3 μM, 1 μM, […], 0.1 μM, 0.03 μM, 0.01 μM.
The positive control used is pepstatin A with a concentration of 0.01 μM. The assay window is defined by the control (pH 5.5), defined as 0% effect, and the control pH 5.5+0.01 μM pepstatin A, defined as 100% effect. After incubation for 3 days, the cell culture supernatants are collected and stored at −20° C. or measured directly. The amount of liberated GAG is measured photometrically.
The effect (1 value) of the respective substance in % based on the positive control (pH 5.5+0.01 μM pepstatin A) and the negative control (pH 5.5) is reported for concentrations of 1 μM and 100 nM. The value represents the average of 4 replicants. In the determination of a concentration/effect relationship, an IC50 value is reported to the database (Assay Explorer).
The cell culture supernatants (200 μl) are either measured directly or stored at −20° C. In order to ensure an accurate determination of the concentration (μg/ml of GAG in the supernatant) of GAG, the measurement values must be located in the linear region of the standard curve. In order to ensure this, various dilutions are routinely introduced (1/5, 1/10, 1/20, 1/40). The dilutions are prepared with medium and introduced automatically (Hamilton) into a 384-well plate (15 μl). 60 μl of DMMB solution are likewise added automatically (or using a multichannel pipette). A rapid colour reaction occurs, which is subsequently measured at 633 nm using a plate reader (for example Envision).

Sequence of recombinant human renin (P00797 67-406): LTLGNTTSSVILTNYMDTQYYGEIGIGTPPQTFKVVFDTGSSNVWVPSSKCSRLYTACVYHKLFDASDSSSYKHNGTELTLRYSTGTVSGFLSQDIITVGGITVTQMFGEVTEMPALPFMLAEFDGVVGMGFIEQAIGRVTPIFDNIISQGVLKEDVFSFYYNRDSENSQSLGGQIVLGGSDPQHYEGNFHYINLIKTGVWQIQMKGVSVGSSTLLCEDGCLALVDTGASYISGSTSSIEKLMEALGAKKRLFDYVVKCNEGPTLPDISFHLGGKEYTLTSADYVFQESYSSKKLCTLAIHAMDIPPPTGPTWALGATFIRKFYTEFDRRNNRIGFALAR

As to `CCC(CC)NC(=O)[C@@H](NC(=O)C[C@H](N)[C@H](Cc1ccccc1)NC(=O)[C@@H](NC(=O)[C@H](CC(C)C)NC(=O)CC(C)C)C(C)C)[C@@H](C)CC` [Compound 39, N-[(1S,2S)-1-(1-Ethylpropylcarbamoyl)-2-methylbutyl]-(S)-3-(S)-amino-4-{(S)-3-methyl-2-[(S)-4-methyl-2-(3-methylbutyryl-amino)pentanoylamino]butyrylamino}-5-phenylpentanamide], the IC50 (as a rule, the concentration at which inhibition is half-maximal) on recombinant human renin was above 30000 nM; in the assay with bovine explants, 0.233 nM.
